Results from patent US7473688B2, “Indolobenzazepine HCV NS5B inhibitors” (Bristol-Myers Squibb Company, priority 2005, dated 2009).
Like-named read-outs stand apart in the source and are kept apart here.

Columns and labels:
[1] = target: T1, HCV NS5B (Hepatitis C virus genotype 1b, UniProt Q9WMX2); experiment: HCV NS5B RdRp enzyme assay (preincubation protocol); format: biochemical
T1 construct: The protein was expressed with an 18 amino acid C-terminal truncation to enhance the solubility; made in house; host or cells: E. coli BL21 (DE3), pET21a
Experimental: HCV NS5B RdRp cloning, expression, and purification. The cDNA encoding the NS5B protein of HCV, genotype 1b, was cloned into the pET21a expression vector. The protein was expressed with an 18 amino acid C-terminal truncation to enhance the solubility. The E. coli competent cell line BL21 (DE3) was used for expression of the protein. Cultures were grown at 37° C. for ˜4 hours until the cultures reached an optical density of 2.0 at 600 nm. The cultures were cooled to 20° C. and induced with 1 mM IPTG. Fresh ampicillin was added to a final concentration of 50 μg/ml and the cells were grown overnight at 20° C.
Cell pellets (3L) were lysed for purification to yield 15-24 mgs of purified NS5B. The lysis buffer consisted of 20 mM Tris-HCl, pH 7.4, 500 mM NaCl, 0.5% triton X-100, 1 mM DTT, 1 mM EDTA, 20% glycerol, 0.5 mg/ml lysozyme, 10 mM MgCl2, 15 ug/ml deoxyribonuclease I, and Complete TM protease inhibitor tablets (Roche). After addition of the lysis buffer, frozen cell pellets were resuspended using a tissue homogenizer. To reduce the viscosity of the sample, aliquots of the lysate were sonicated on ice using a microtip attached to a Branson sonicator. The sonicated lysate was centrifuged at 100,000×g for 1 hr at 4° C. and filtered through a 0.2 μm filter unit (Corning).
The protein was purified using three sequential chromatography steps: Heparin sepharose CL-6B, polyU sepharose 4B, and Hitrap SP sepharose (Pharmacia). The chromatography buffers were identical to the lysis buffer but contained no lysozyme, deoxyribonuclease I, MgCl2 or protease inhibitor and the NaCl concentration of the buffer was adjusted according to the requirements for charging the protein onto the column. Each column was eluted with a NaCl gradient which varied in length from 5-50 column volumes depending on the column type. After the final chromatography step, the resulting purity of the enzyme is >90% based on SDS-PAGE analysis. The enzyme was aliquoted and stored at −80° C.
Standard HCV NS5B RdRp enzyme assay. HCV RdRp genotype 1b assays were run in a final volume of 60 μl in 96 well plates (Costar 3912). The assay buffer is composed of 20 mM Hepes, pH 7.5, 2.5 mM KCl, 2.5 mM MgCl2, 1 mM DTT, 1.6 U RNAse inhibitor (Promega N2515), 0.1 mg/ml BSA (Promega R3961), and 2% glycerol. All compounds were serially diluted (3-fold) in DMSO and diluted further in water such that the final concentration of DMSO in the assay was 2%. HCV RdRp genotype 1b enzyme was used at a final concentration of 28 nM. A polyA template was used at 6 nM, and a biotinylated oligo-dT12 primer was used at 180 nM final concentration. Template was obtained commercially (Amersham 27-4110). Biotinylated primer was prepared by Sigma Genosys. 3H-UTP was used at 0.6 μCi (0.29 μM total UTP). Reactions were initiated by the addition of enzyme, incubated at 30° C. for 60 min, and stopped by adding […] of 50 mM EDTA containing SPA beads (4 μg/μl, Amersham RPNQ 0007). Plates were read on a Packard Top Count NXT after >1 hr incubation at room temperature.
Modified HCV NS5B RdRp enzyme assay. A modified enzyme assay was performed essentially as described for the standard enzyme assay except for the following: The biotinylated oligo dT12 primer was precaptured on streptavidin-coated SPA beads by mixing primer and beads in assay buffer and incubating at room temperature for one hour. Unbound primer was removed after centrifugation. The primer-bound beads were resuspended in 20 mM Hepes buffer, pH 7.5 and used in the assay at final concentrations of […] primer and 0.67 μg/μl beads. Order of addition in the assay: Enzyme (14 nM) was added to diluted compound followed by the addition of a mixture of template (0.2 nM), 3H-UTP (0.6 μCi, 0.29 μM), and primer-bound beads, to initiate the reaction; concentrations given are final. Reactions were allowed to proceed for 4 hours at 30° C.
IC50 values for compounds were determined using seven different [I]. […]

[2] = system: HCV replicon; experiment: HCV replicon FRET assay; format: cell-based; settings: Hepatitis C virus, FRET assay, read-out: EC50*
From the text: FRET Assay Preparation. To perform the HCV FRET screening assay, 96-well cell culture plates were used. The FRET peptide (Anaspec, Inc.) (Taliani et al., Anal. Biochem. 1996, 240, 60-67) contains a fluorescence donor, EDANS, near one end of the peptide and an acceptor, DABCYL, near the other end. The fluorescence of the peptide is quenched by […] resonance energy transfer (RET) between the donor and the acceptor, but as the NS3 protease cleaves the peptide the products are released from RET quenching and the fluorescence of the donor becomes apparent. The assay reagent was made as follows: 5× cell Luciferase cell culture lysis reagent from Promega (#E153A) diluted to 1× with dH2O, NaCl added to 150 mM final, the FRET peptide diluted to 20 uM final from a 2 mM stock.
To prepare plates, HCV replicon cells, with or without a Renilla luciferase reporter gene, were trypsinized and placed into each well of a 96-well plate with titrated test compounds added in columns 3 through 12; columns 1 and 2 contained a control compound (HCV protease inhibitor), and the bottom row contained cells without compound. The plates were then placed in a CO2 incubator at 37° C.
Assays. Subsequent to addition of the test compounds described above (FRET Assay Preparation), at various times the plate was removed and Alamar blue solution (Trek Diagnostics, #00-100) was added per well as a measure of cellular toxicity. After reading in a Cytoflour 4000 instrument (PE Biosystems), plates were rinsed with PBS and then used for FRET assay by the addition of 30 ul of the FRET peptide assay reagent described above (FRET Assay Preparation) per well. The plate was then placed into the Cytoflour 4000 instrument which had been set to 340 excite/490 emission, automatic mode for 20 cycles and the plate read in a kinetic mode. Typically, the signal to noise using an endpoint analysis after the reads was at least three-fold. Alternatively, after Alamar blue reading, plates were rinsed with PBS, 50 ul of DMEM (high glucose) without phenol red was added and plates were then used for luciferase assay using the Promega Dual-Glo Luciferase Assay System.
Compound analysis was determined by quantification of the relative HCV replicon inhibition and the relative cytotoxicity values. To calculate cytoxicity values, the average Alamar Blue fluorescence signals from the control wells were set as 100% non-toxic. The individual signals in each of the compound test wells were then divided by the average control signal and multiplied by 100% to determine […]. To calculate the HCV replicon inhibition values, an average background value was obtained from the two wells containing the highest amount of HCV protease inhibitor at the end of the assay period. These numbers were similar to those obtained from naïve Huh-7 cells.
The background numbers were then subtracted from the average signal obtained from the control wells and this number was used as 100% activity. The individual signals in each of the compound test wells were then divided by the averaged control values after background subtraction and multiplied by 100% to determine percent activity. EC50 values for a protease inhibitor titration were calculated as the concentration which caused a 50% reduction in FRET or luciferase activity. The two numbers generated for the compound plate, percent cytoxicity and percent activity were used to determine compounds of interest for further analysis.

T1 sequence (Q9WMX2 2420-2992): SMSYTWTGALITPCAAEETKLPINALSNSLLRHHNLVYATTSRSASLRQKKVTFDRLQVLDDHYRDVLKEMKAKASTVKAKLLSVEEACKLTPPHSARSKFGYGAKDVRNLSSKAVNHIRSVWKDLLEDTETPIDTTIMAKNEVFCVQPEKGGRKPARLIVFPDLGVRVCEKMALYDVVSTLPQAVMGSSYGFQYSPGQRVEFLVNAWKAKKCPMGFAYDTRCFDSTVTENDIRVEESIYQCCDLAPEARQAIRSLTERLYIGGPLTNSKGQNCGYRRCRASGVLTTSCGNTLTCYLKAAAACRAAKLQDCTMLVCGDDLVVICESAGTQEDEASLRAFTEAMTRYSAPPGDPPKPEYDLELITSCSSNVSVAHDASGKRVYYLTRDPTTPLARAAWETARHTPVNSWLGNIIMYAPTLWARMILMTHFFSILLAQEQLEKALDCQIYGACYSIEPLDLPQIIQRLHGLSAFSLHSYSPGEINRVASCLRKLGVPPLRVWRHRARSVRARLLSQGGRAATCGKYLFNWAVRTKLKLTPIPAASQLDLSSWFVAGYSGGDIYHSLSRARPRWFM

| SMILES | IC50 ([1]; Table 1, read-out: IC50*) [nM] | EC50 ([2]; Table 1) [nM] | further results |
| --- | --- | --- | --- |
| COc1ccc2c(c1)CC(NC(=O)N(C)CC(=O)N(C)C)Cn1c-2c(C2CCCCC2)c2ccc(C(=O)NS(=O)(=O)N(C)C)cc21 (stereo not drawn) |  |  | IC50 ([1]; Table 1a, read-out: IC50*): 10 to 1000 nM; EC50 ([2]; Table 1a): 30 to 1000 nM |
| COCCN(CCOC)C(=O)C1=Cc2ccccc2-c2c(C3CCCCC3)c3ccc(C(=O)NS(=O)(=O)N(C)C)cc3n2C1 | 10 to 1000 | 70 to 1000 |  |
| CN1CCCC(CN(C)C(=O)C2Cc3ccccc3-c3c(C4CCCCC4)c4ccc(C(=O)NS(=O)(=O)N(C)C)cc4n3C2)C1 (stereo not drawn) | 10 to 1000 | < 20 |  |
| CN(C)S(=O)(=O)NC(=O)c1ccc2c(C3CCCCC3)c3n(c2c1)CC(C(=O)N1CCCC(F)C1)=Cc1ccccc1-3 (stereo not drawn) | 10 to 1000 | 70 to 1000 |  |
| CN(CCC1OCCO1)C(=O)C1=Cc2ccccc2-c2c(C3CCCCC3)c3ccc(C(=O)NS(=O)(=O)N(C)C)cc3n2C1 | 10 to 1000 | 70 to 1000 |  |
| CN(C)S(=O)(=O)NC(=O)c1ccc2c(C3CCCCC3)c3n(c2c1)CC(C(=O)N1CCC(N2CCCCC2=O)CC1)Cc1ccccc1-3 (stereo not drawn) | 10 to 1000 | 70 to 1000 |  |
| CN(C)S(=O)(=O)NC(=O)c1ccc2c(C3CCCCC3)c3n(c2c1)CC(C(=O)N1CCN(S(C)(=O)=O)CC1)=Cc1cc(OCc2ccccc2)ccc1-3 | 10 to 1000 | 70 to 1000 |  |
| CN(C)S(=O)(=O)NC(=O)c1ccc2c(C3CCCCC3)c3n(c2c1)CC(C(=O)NC1CCOCC1)=Cc1ccccc1-3 | 10 to 1000 | 70 to 1000 |  |
| CN(C)S(=O)(=O)NC(=O)c1ccc2c(C3CCCCC3)c3n(c2c1)CC(C(=O)N1CCOC(c2ccccc2)C1)=Cc1ccccc1-3 (stereo not drawn) | 10 to 1000 | 1000 to 10000 |  |
| O=C1Cn2c(c(C3CCCCC3)c3ccc(C(=O)NS(=O)(=O)N4CCOCC4)cc32)-c2ccccc2N1 | 10 to 1000 | 70 to 1000 |  |
| COc1ccc2c(c1)C=C(C(=O)N1CCN(C(=O)C3(O)CC3)CC1)Cn1c-2c(C2CCCCC2)c2ccc(C(=O)NS(=O)(=O)N(C)C)cc21 |  |  | IC50 ([1]; Table 1b, read-out: IC50*): 20 to 1000 nM; EC50 ([2]; Table 1b): 30 to 1000 nM |
| CCOC(=O)CN1CCN(C(=O)C2=Cc3ccccc3-c3c(C4CCCCC4)c4ccc(C(=O)NS(=O)(=O)N(C)C)cc4n3C2)CC1 | 10 to 1000 | 70 to 1000 |  |
| CN(C)S(=O)(=O)NC(=O)c1ccc2c(C3CCCCC3)c3n(c2c1)CC(C(=O)N1CCN(C(=O)N2CCOCC2)CC1)=Cc1ccccc1-3 | 10 to 1000 | 70 to 1000 |  |
| COc1ccc2c(c1)C=C(C(=O)N1CCN(S(=O)(=O)N(C)C)CC1)Cn1c-2c(C2CCCCC2)c2ccc(C(=O)NS(=O)(=O)N(C)C)cc21 | 10 to 1000 | 70 to 1000 |  |
| CN(C)S(=O)(=O)NC(=O)c1ccc2c(C3CCCCC3)c3n(c2c1)CC(C(=O)N1C[C@@H]2C[C@H]1CN2C(=O)OC(C)(C)C)=Cc1ccccc1-3 | 10 to 1000 | 70 to 1000 |  |
